Experiments:
[1] = molecular target: T1, ABL1(H396P)-nonphosphorylated (Homo sapiens, UniProt P00519, H396P); assay: KinomeScan; assay type: binding; details: read-out: % control
T1 construct: purchased DiscoveRx KINOMEscan

[2] = molecular target: T2, STK33 (Homo sapiens, UniProt Q9BYT3); assay: KinomeScan; assay type: binding; details: read-out: % control
T2 construct: purchased DiscoveRx KINOMEscan

[3] = molecular target: T3, CAMK1D (Homo sapiens, UniProt Q8IU85); assay: KinomeScan; assay type: binding; details: read-out: % control
T3 construct: purchased DiscoveRx KINOMEscan

[4] = molecular target: T4, ZAK (Homo sapiens, UniProt Q9NYL2); assay: KinomeScan; assay type: binding; details: read-out: % control
T4 construct: purchased DiscoveRx KINOMEscan

[5] = molecular target: T5, EGFR(G719S) (Homo sapiens, UniProt P00533, G719S); assay: KinomeScan; assay type: binding; details: read-out: % control
T5 construct: purchased DiscoveRx KINOMEscan

[6] = molecular target: T6, PRKG1 (Homo sapiens, UniProt Q13976); assay: KinomeScan; assay type: binding; details: read-out: % control
T6 construct: purchased DiscoveRx KINOMEscan

[7] = molecular target: T7, TAOK2 (Homo sapiens, UniProt Q9UL54); assay: KinomeScan; assay type: binding; details: read-out: % control
T7 construct: purchased DiscoveRx KINOMEscan
T7 sequence (Q9UL54 whole entry): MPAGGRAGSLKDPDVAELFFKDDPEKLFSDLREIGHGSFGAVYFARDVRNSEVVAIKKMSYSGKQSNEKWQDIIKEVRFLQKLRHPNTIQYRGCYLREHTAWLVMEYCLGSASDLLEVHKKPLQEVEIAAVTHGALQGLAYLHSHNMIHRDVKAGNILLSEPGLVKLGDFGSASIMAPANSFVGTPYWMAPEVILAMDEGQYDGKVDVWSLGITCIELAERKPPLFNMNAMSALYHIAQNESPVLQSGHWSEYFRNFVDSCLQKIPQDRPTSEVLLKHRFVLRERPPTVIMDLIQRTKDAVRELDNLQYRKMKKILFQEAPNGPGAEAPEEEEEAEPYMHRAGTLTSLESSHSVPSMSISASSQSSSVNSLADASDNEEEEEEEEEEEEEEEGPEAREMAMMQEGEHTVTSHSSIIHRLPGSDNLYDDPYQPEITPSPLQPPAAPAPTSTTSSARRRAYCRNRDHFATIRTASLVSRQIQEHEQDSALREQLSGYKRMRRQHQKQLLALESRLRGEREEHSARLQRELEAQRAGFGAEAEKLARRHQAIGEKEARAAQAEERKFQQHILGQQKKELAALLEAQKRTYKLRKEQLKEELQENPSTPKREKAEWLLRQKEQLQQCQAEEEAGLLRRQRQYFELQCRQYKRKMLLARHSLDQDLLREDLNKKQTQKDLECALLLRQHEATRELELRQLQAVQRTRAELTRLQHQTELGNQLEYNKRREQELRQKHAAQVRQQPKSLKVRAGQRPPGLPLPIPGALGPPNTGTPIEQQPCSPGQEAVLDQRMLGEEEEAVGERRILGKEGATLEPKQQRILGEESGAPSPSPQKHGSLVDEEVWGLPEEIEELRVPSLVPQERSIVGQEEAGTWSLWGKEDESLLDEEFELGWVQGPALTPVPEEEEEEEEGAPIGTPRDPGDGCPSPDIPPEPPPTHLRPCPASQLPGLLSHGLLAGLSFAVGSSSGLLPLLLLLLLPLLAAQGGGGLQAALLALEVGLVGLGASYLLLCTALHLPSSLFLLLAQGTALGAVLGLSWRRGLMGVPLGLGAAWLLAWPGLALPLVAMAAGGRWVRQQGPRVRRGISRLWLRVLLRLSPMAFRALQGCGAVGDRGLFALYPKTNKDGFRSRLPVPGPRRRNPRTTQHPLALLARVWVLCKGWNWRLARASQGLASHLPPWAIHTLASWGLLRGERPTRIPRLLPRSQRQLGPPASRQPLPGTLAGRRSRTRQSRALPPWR

[8] = molecular target: T8, AMPK-alpha2 (Homo sapiens, UniProt P54646); assay: KinomeScan; assay type: binding; details: read-out: % control
T8 construct: purchased DiscoveRx KINOMEscan
T8 sequence (P54646 whole entry): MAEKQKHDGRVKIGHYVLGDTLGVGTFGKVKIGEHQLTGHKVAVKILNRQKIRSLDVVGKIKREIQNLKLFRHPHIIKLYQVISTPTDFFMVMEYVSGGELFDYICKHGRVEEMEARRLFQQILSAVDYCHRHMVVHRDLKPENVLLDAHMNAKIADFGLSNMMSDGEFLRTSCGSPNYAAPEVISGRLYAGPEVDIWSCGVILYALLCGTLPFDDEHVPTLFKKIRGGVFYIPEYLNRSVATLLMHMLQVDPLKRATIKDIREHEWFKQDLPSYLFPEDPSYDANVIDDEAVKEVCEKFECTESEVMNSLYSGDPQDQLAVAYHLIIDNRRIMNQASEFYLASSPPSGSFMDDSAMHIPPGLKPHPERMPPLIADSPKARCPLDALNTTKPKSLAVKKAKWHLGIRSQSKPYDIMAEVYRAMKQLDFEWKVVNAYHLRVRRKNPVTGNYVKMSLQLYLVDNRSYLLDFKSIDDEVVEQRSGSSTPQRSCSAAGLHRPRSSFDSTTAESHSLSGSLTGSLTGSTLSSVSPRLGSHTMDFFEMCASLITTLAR

[9] = molecular target: T9, EGFR(E746-A750del) (Homo sapiens, UniProt P00533, DEL746-750); assay: KinomeScan; assay type: binding; details: read-out: % control
T9 construct: purchased DiscoveRx KINOMEscan

[10] = molecular target: T10, WNK2 (Homo sapiens, UniProt Q9Y3S1); assay: KinomeScan; assay type: binding; details: read-out: % control
T10 construct: purchased DiscoveRx KINOMEscan
T10 sequence (Q9Y3S1 whole entry): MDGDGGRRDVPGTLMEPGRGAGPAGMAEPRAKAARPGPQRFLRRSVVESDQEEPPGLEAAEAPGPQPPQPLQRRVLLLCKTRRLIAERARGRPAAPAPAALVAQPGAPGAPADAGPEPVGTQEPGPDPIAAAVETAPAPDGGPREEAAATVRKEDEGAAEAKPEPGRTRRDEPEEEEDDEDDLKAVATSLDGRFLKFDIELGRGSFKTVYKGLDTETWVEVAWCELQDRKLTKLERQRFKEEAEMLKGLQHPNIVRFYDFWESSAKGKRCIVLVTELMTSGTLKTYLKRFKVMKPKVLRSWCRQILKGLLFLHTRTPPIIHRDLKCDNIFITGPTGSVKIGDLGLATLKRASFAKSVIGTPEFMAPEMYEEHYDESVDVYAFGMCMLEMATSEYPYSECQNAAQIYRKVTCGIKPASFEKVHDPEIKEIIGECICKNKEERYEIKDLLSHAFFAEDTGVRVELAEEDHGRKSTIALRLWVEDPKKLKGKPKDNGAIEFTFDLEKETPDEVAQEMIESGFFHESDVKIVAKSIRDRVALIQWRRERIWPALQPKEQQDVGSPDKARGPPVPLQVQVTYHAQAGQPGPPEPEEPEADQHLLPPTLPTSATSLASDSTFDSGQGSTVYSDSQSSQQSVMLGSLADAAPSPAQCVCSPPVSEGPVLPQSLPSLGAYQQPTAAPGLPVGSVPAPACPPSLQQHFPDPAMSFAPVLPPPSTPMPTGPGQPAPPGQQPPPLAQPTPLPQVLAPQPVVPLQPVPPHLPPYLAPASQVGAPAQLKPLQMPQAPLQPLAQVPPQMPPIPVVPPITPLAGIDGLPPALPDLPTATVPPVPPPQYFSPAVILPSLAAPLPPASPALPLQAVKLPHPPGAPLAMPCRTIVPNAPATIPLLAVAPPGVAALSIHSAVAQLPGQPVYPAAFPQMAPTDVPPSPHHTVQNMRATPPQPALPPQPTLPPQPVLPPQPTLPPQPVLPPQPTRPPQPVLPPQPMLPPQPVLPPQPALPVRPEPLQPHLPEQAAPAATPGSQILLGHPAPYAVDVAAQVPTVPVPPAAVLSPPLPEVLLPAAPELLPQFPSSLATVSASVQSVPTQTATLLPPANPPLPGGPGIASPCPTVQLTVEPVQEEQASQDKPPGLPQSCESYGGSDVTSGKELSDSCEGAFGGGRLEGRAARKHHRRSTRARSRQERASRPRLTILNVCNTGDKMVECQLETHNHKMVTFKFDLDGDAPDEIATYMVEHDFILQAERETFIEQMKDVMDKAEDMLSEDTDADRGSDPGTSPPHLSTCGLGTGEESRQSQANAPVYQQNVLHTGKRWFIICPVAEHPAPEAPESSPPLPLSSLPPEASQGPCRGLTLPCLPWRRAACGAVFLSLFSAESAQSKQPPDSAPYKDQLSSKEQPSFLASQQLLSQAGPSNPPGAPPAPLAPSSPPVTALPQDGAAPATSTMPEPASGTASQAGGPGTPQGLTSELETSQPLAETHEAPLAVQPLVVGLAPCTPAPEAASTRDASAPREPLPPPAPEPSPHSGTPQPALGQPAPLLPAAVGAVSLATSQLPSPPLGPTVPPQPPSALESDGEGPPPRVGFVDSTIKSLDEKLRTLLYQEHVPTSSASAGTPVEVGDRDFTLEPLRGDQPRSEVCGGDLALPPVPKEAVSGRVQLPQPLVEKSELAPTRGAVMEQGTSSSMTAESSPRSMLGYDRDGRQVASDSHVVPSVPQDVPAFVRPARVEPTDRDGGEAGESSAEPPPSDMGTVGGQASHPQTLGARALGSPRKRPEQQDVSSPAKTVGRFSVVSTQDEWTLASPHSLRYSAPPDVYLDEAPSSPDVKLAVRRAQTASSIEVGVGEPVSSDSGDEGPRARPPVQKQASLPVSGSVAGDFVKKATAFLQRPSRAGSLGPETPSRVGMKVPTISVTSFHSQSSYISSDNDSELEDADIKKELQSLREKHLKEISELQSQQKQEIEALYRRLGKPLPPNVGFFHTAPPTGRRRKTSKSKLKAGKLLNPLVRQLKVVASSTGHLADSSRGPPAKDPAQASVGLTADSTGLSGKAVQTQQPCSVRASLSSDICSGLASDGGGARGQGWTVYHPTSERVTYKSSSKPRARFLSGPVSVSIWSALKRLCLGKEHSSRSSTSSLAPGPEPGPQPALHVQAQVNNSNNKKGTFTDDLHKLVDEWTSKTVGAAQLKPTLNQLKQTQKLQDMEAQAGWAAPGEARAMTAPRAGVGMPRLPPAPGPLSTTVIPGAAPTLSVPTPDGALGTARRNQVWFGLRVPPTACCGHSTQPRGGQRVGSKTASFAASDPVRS

[11] = tested on: A549 (EGFR wt); assay: Anti-proliferation, NSCLC cell lines (CellTiter-Glo); assay type: cell-based; details: Homo sapiens, 72 hours, triplet testing
Experimental: (§1) The human cancer cell lines H1975, HCC827, H2122, CHO, CHL and H1355 were purchased from the American Type Culture Collection (ATCC) (Manassas, VA, USA). PC9 cell line was purchased from the Sigma-Aldrich (St. Louis, MO, USA). A549, H3255 were purchased from Cobioer Biosciences CO., LTD (Nanjing, China). […] A549 and H1355 were cultured in F-12K Nutrient Mixture (kaighn's Modification) (Gibco, USA) with 10% FBS and supplemented with 2% L-glutamine and 1% pen/strep. H3255 was cultured in BEGM media (LONZA, USA) with 10% FBS and supplemented with 2% L-glutamine and 1% pen/strep.

[12] = tested on: PC-9 (EGFR del19); assay: as above; assay type: cell-based; details: Homo sapiens, 72 hours, triplet testing
Experimental: as §1

[13] = tested on: H2122 (EGFR wt); assay: as above; assay type: cell-based; details: Homo sapiens, NCI-H2122, 72 hours, triplet testing
Experimental: as §1

[14] = tested on: H1355(EGFR wt); assay: as above; assay type: cell-based; details: Homo sapiens, NCI-H1355, 72 hours, triplet testing
Experimental: as §1

[15] = tested on: H3255 (EGFRL858R); assay: as above; assay type: cell-based; details: Homo sapiens, NCI-H3255, 72 hours, triplet testing
Experimental: as §1

[16] = tested on: H1703 (EGFR wt); assay: as above; assay type: cell-based; details: Homo sapiens, NCI-H1703, 72 hours, triplet testing
Experimental: as §1

[17] = tested on: HCC827 (EGFR del19); assay: as above; assay type: cell-based; details: Homo sapiens, 72 hours, triplet testing
Experimental: as §1

[18] = molecular target: T11, FLT4 (Homo sapiens, UniProt P35916); assay: KinomeScan; assay type: binding; details: read-out: % control
T11 construct: purchased DiscoveRx KINOMEscan

[19] = molecular target: T12, MYLK2 (Homo sapiens, UniProt Q9H1R3); assay: KinomeScan; assay type: binding; details: read-out: % control
T12 construct: purchased DiscoveRx KINOMEscan
T12 sequence (Q9H1R3 whole entry): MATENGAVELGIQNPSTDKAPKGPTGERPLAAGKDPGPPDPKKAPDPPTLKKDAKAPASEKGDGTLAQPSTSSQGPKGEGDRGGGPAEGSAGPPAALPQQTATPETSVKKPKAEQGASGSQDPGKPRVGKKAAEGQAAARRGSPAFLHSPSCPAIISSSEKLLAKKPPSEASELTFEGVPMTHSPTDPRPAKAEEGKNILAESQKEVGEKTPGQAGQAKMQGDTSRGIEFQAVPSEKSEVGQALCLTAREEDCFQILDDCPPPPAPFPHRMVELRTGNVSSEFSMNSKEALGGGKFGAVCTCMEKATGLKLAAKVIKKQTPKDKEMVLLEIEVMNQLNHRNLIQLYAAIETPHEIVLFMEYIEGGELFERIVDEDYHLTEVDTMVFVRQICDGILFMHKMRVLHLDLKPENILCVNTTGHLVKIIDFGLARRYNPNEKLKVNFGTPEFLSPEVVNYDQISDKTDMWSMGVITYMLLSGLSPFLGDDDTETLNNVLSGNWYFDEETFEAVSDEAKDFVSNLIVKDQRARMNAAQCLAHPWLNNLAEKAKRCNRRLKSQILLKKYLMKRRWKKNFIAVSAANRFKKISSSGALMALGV

[20] = molecular target: T13, CDK3 (Homo sapiens, UniProt Q00526); assay: KinomeScan; assay type: binding; details: read-out: % control
T13 construct: purchased DiscoveRx KINOMEscan

[21] = molecular target: T14, FGFR3(G697C) (Homo sapiens, UniProt P22607, G697C); assay: KinomeScan; assay type: binding; details: read-out: % control
T14 construct: purchased DiscoveRx KINOMEscan

[22] = molecular target: T15, DRAK1 (Homo sapiens, UniProt Q9UEE5); assay: KinomeScan; assay type: binding; details: read-out: % control
T15 construct: purchased DiscoveRx KINOMEscan

[23] = molecular target: T16, DYRK1A (Homo sapiens, UniProt Q13627); assay: KinomeScan; assay type: binding; details: read-out: % control
T16 construct: purchased DiscoveRx KINOMEscan

[24] = molecular target: T17, RSK1(Kin.Dom.1-N-terminal) (Homo sapiens, UniProt Q15418); assay: KinomeScan; assay type: binding; details: read-out: % control
T17 construct: RSK1(Kin.Dom.1-N-terminal); purchased DiscoveRx KINOMEscan
T17 sequence (Q15418 1-391 limits assumed): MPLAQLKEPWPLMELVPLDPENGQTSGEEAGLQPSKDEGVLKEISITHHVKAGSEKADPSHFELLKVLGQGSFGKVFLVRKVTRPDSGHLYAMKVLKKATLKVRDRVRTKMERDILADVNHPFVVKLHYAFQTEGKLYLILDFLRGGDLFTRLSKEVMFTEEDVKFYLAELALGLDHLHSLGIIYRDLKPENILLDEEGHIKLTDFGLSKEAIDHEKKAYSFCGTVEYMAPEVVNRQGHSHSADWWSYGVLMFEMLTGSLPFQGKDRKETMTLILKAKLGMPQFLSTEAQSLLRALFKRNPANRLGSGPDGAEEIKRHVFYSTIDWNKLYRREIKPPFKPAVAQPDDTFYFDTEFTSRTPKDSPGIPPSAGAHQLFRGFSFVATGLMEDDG

[25] = molecular target: T18, TIE2 (Homo sapiens, UniProt Q02763); assay: KinomeScan; assay type: binding; details: read-out: % control
T18 construct: purchased DiscoveRx KINOMEscan

[26] = tested on: BaF3-FL-EGFR-del19; assay: Anti-proliferation, BaF3 isogenic cell lines (CellTiter-Glo); assay type: cell-based; details: Mus musculus, 72 hours, triplet testing
[27] = molecular target: T19, BLK (Homo sapiens, UniProt P51451); assay: KinomeScan; assay type: binding; details: read-out: % control
T19 construct: purchased Invitrogen (SelectScreen service)

[28] = molecular target: T20, ROCK1 (Homo sapiens, UniProt Q13464); assay: KinomeScan; assay type: binding; details: read-out: % control
T20 construct: purchased DiscoveRx KINOMEscan

[29] = molecular target: T21, ULK3 (Homo sapiens, UniProt Q6PHR2); assay: KinomeScan; assay type: binding; details: read-out: % control
T21 construct: purchased DiscoveRx KINOMEscan

[30] = molecular target: T22, MET(Y1235D) (Homo sapiens, UniProt P08581, Y1235D); assay: KinomeScan; assay type: binding; details: read-out: % control
T22 construct: purchased DiscoveRx KINOMEscan

[31] = molecular target: T23, DRAK2 (Homo sapiens, UniProt O94768); assay: KinomeScan; assay type: binding; details: read-out: % control
T23 construct: purchased DiscoveRx KINOMEscan

[32] = molecular target: T24, MAP3K3 (Homo sapiens, UniProt Q99759); assay: KinomeScan; assay type: binding; details: read-out: % control
T24 construct: purchased DiscoveRx KINOMEscan

[33] = molecular target: T25, SRPK1 (Homo sapiens, UniProt Q96SB4); assay: KinomeScan; assay type: binding; details: read-out: % control
T25 construct: purchased DiscoveRx KINOMEscan

[34] = molecular target: T26, PIK3CA(I800L) (Homo sapiens, UniProt P42336, I800L); assay: KinomeScan; assay type: binding; details: read-out: % control
T26 construct: purchased DiscoveRx KINOMEscan

[35] = molecular target: T27, EPHB4 (Homo sapiens, UniProt P54760); assay: KinomeScan; assay type: binding; details: read-out: % control
T27 construct: purchased DiscoveRx KINOMEscan

[36] = molecular target: T28, FAK (Homo sapiens, UniProt Q05397); assay: KinomeScan; assay type: binding; details: read-out: % control
T28 construct: purchased DiscoveRx KINOMEscan

[37] = molecular target: T29, PYK2 (Homo sapiens, UniProt Q14289); assay: KinomeScan; assay type: binding; details: read-out: % control
T29 construct: purchased DiscoveRx KINOMEscan

C=CC(=O)N1CCC[C@@H](n2nc(-c3ccc(OCc4cccc(C)n4)c(Cl)c3)c3c(N)ncnc32)C1 [CHMFL-EGFR-26]
remaining binding at 1 µM [1]: 100%
remaining binding at 1 µM [2]: 100%
remaining binding at 1 µM [3]: 91%
remaining binding at 1 µM [4]: 100%
remaining binding at 1 µM [5]: 18%
remaining binding at 1 µM [6]: 14%
remaining binding at 1 µM [7]: 78%
remaining binding at 1 µM [8]: 90%
remaining binding at 1 µM [9]: 34%
remaining binding at 1 µM [10]: 92%
GI50 [11]: 5.4 µM
GI50 [12]: 0.035 µM
GI50 [13]: 3.5 µM
GI50 [14]: 8.1 µM
GI50 [15]: 0.027 µM
GI50 [16]: 7.7 µM
GI50 [17]: 0.036 µM
remaining binding at 1 µM [18]: 99%
remaining binding at 1 µM [19]: 100%
remaining binding at 1 µM [20]: 84%
remaining binding at 1 µM [21]: 100%
remaining binding at 1 µM [22]: 100%
remaining binding at 1 µM [23]: 100%
remaining binding at 1 µM [24]: 97%
remaining binding at 1 µM [25]: 78%
GI50 [26]: 0.013 µM
remaining binding at 1 µM [27]: 0.35%
remaining binding at 1 µM [28]: 100%
remaining binding at 1 µM [29]: 92%
remaining binding at 1 µM [30]: 55%
remaining binding at 1 µM [31]: 91%
remaining binding at 1 µM [32]: 67%
remaining binding at 1 µM [33]: 100%
remaining binding at 1 µM [34]: 100%
remaining binding at 1 µM [35]: 100%
remaining binding at 1 µM [36]: 90%
remaining binding at 1 µM [37]: 55%
